Laboratory results published in patent US6376169B1, “Method for diagnosing a vascular condition” (Queens University at Kingston, priority 1998, dated 2002).
Entries after “also recorded” stand apart in the source; their conditions may differ.

Legend:
Format in all cases: cell-based, human
[1] = tested on: RTP/Drg1 mRNA; experiment: Northern blot of RTP/Drg1 mRNA in MDA-MB-231 cells; details: for levels of RTP/Drg1 mRNA: 20% oxygen, up to 72 h, 100 μM cobalt chloride, 30 mM Tiron or 100 μM DFO; for effect on hypoxic up-regulation of RTP/Drg1 mRNA: 1% oxygen + 30% CO, 24 h; for effect of CO on up-regulation of RTP/Drg1 mRNA induced by cobalt chloride, Tiron and DFO: hypoxic conditions with CO
Protocol: (§1) To determine whether hypoxia regulates the expression of certain genes (e.g., PAI-1, uPAR, RTP/Drg1) via an iron-containing heme protein, cells were cultured for up to 72 h at 20% oxygen in the presence or absence of either 100 μM cobalt chloride, or 30 mM sodium 4,5-dihydroxybenzene-1,3-disulfonate (Tiron), or 100 μM desferrioxamine mesylate (DFO) (Sigma Chemical CO., St. Louis, Mo.). Further confirmation of the role of a heme protein in hypoxic responses can be achieved by culturing cells under hypoxia in the presence of carbon monoxide, which maintains the heme protein in the oxy state and thereby blocks heme protein-mediated hypoxic responses. Thus, cells were also cultured for 24 h at 37° C. under hypoxic conditions in the presence of 30% carbon monoxide.
(§2) Northern Blot Analysis. Total RNA was isolated from cell lines as described above. Aliquots of 20 μg were denatured and subjected to electrophoresis in 1% agarose-formaldehyde gels (Sambrook, J., Fritsch, E. F., and Maniatis, T. Molecular Cloning: A Laboratory Manual, Cold Spring Harbor Laboratory, Cold Spring Harbor, N.Y. (1989)). RNA was transferred to nylon membranes (Micron Separations, Inc., Westboro, Mass.). After prehybridization at 42° C. for 2-3 h in 50% formamide, 5×Denhardt's solution, 0.5% sodium dodecyl sulfate (SDS), 6×SSC (1×SSC: 0.15M NaCl, 15 mM sodium citrate, pH 7.0), and 100 μg/mL denatured salmon sperm DNA, membranes were hybridized for a period of time of overnight (˜18 h) to about 72 h at 42° C. with a cDNA probe (e.g., RTP/Drg1, PAI-1 (PAI-1 cDNA provided by Dr. Keith McCrae, Temple University School of Medicine, Philadelphia, Pa.), uPAR (Higazi A, et al., J Biol Chem 266:12752, (1995)) pre-labeled with [^32P]-dCTP using a Pharmacia Oligolabelling kit (Pharmacia Biotech, Piscataway, N.J.). The hybridization solution contained 6×SSC, 0.5% SDS, 100 μg/mL denatured salmon sperm DNA, 50% formamide and cDNA probe. After hybridization, the membranes were washed with 2×SSC and 0.5% SDS at room temperature for 15 min, 2×SSC and 0.1% SDS at room temperature for 15 min, and 0.1×SSC and 0.5% SDS for 30 min. Dupont Reflection NEF film (Dupont Canada, Inc., Mississauga, ON) was exposed to the membranes for 1-3 days at −80° C. Bands on radiographic film were analyzed using a SigmaGel gel analysis software package (Jandel Scientific Software, San Rafael, Calif.).

[2] = tested on: uPAR; experiment: uPAR expression by flow cytometry (mAb 3937) on HTR-8/SVneo cells; details: for effect on the inhibition by carbon monoxide of hypoxia-induced uPAR expression: compound in the medium, hypoxia + CO, two independent experiments
Protocol: as §1
Determination of uPAR expression by flow cytometry. For flow cytometry, cells were released from flasks by incubation in cold PBS containing 5 mM EDTA. One million cells were then incubated for 1 h, at 4° C., with either 10 μg/ml of mAb 3937, or control mouse IgG2a, used at the same concentration. Bound antibody was detected using FITC-conjugated goat anti-mouse immunoglobulin. Cells were then fixed with 2% paraformaldehyde in PBS prior to analysis using a Coulter Elite Flow Cytometer.

[3] = tested on: PAI-1 mRNA; experiment: Northern blot of PAI-1 mRNA in HTR-8/SVneo cells; details: for increase in PAI-1 mRNA (3.0-kb and 2.3-kb transcripts): 24 hours in the presence of compound
Protocol: as §1, with “Thus, cells were also cultured for 24 h at 37° C. under hypoxic conditions in the presence of 30% carbon monoxide.” left out
as §2, with “After hybridization, the membranes were washed with 2×SSC and 0.5% SDS at room temperature for 15 min, 2×SSC and 0.1% SDS at room temperature for 15 min, and 0.1×SSC and 0.5% SDS for 30 min. Dupont Reflection NEF film (Dupont Canada, Inc., Mississauga, ON) was exposed to the membranes for 1-3 days at −80° C.” left out, “Calif.). […]” for “Calif.).”

[4] = tested on: uPAR mRNA; experiment: Northern blot of uPAR mRNA in HTR-8/SVneo cells; details: 24 h
Protocol: as §1, with “Thus, cells were also cultured for 24 h at 37° C. under hypoxic conditions in the presence of 30% carbon monoxide.” left out
Northern Blot Analysis. Total RNA was isolated from cell lines as described above. […] RNA was transferred to nylon membranes (Micron Separations, Inc., Westboro, Mass.). […] The hybridization solution contained 6×SSC, 0.5% SDS, 100 μg/mL denatured salmon sperm DNA, 50% formamide and cDNA probe. After hybridization, the membranes were washed with 2×SSC and 0.5% SDS at room temperature for 15 min, 2×SSC and 0.1% SDS at room temperature for 15 min, and 0.1×SSC and 0.5% SDS for 30 min. Dupont Reflection NEF film (Dupont Canada, Inc., Mississauga, ON) was exposed to the membranes for 1-3 days at −80° C. Bands on radiographic film were analyzed using a SigmaGel gel analysis software package (Jandel Scientific Software, San Rafael, Calif.).

[5] = standard (20% O2) conditions with compound

Compound | levels of RTP/Drg1 mRNA [1] | effect on the inhibition by carbon monoxide of hypoxia-induced uPAR expression [2] | increase in PAI-1 mRNA (3.0-kb and 2.3-kb transcripts) [3] | increase in uPAR mRNA vs standard conditions alone [4, 5] [fold] | effect on hypoxic up-regulation of RTP/Drg1 mRNA [1] | effect on hypoxic up-regulation of RTP/Drg1 mRNA ([1]; listed as CO) | effect of CO on up-regulation of RTP/Drg1 mRNA induced by cobalt chloride, Tiron and DFO [1] | effect of CO on up-regulation of RTP/Drg1 mRNA induced by cobalt chloride, Tiron and DFO ([1]; listed as CO) | inhibition of hypoxia-induced expression of uPAR ([2]; 1% O2 + 20% carbon monoxide, 24 h, flow cytometry) [%] | effect on hypoxia-mediated increase in PAI-1 mRNA levels ([3]; 1% oxygen + 20% carbon monoxide, 24 hours) | reduction of hypoxia-mediated increase in uPAR mRNA ([4]; 1% O2 + 20% carbon monoxide) [%] | increase in uPAR mRNA vs standard conditions alone ([4]; hypoxic (1% O2) conditions in the presence of 20% carbon monoxide) [fold]
O=S(=O)([O-])c1cc(O)c(O)c(S(=O)(=O)[O-])c1.[Na+].[Na+] [Tiron, sodium 4,5-dihydroxybenzene-1,3-disulfonate] | time-dependent increases in RTP/Drg1 mRNA | completely prevented | substantial increase | > 10 |  |  |  |  |  |  |  | 
[C-]#[O+] [carbon monoxide] |  |  |  |  | abrogated | substantial decrease in mRNA levels | did not inhibit | unable to inhibit | 56 | prevented most of the hypoxia-mediated increase in PAI-1 mRNA levels; also recorded: abolished the effect of hypoxia on PAI-1 mRNA levels | 35 | 1.8
[Cl][Co][Cl] [cobalt chloride] | time-dependent increases in RTP/Drg1 mRNA | completely prevented | about 2 fold | 3.5 |  |  |  |  |  |  |  | 
